From patent publication US20100311606A1, “PHARMACOGENOMIC CELL LINE PANEL AND USE THEREOF” (priority 2007, published 2010)

Legend:
in vitro = assay type: cell-based; conditions: human
Method: (§1) Specifically, once cells grew at an exponential phase, 90 μl of cell suspension were placed into a 96 well flat plate (Corning, Corning, N.Y.) at a density of 5×10^4 cells/well. […] Experiments were performed in triplicate for each concentration. Medium alone was used as a blank, and cells treated with DMSO were used as controls for every plate. At end of the incubation, 20 μl combined MTS/PMS solution were added into each well and incubated at 37° C. for an additional 1-2 hours. The amount of soluble formazan was measured with a SAFIRE™ microplate reader (Tecan A G, Switzerland). An absorbance for the control cells ranging from 0.8 to 1.3 was considered to meet the standard of cytotoxicity assays for the analysis. The final cell viability for each well was calculated using the following formula: relative survival cell number=absorbance (drug-treated cells−blank)/absorbance (control cells−[…]). […] GI50 values at each concentration for each cell lines were then calculated based on the dose response curve. […] In addition, to functionally characterize the effect of the candidate genes on the sensitivity to both drugs, drug cytotoxicity with human tumor cell lines also was analyzed using an MTS assay. […]

[1] = test system: patients with pancreatic cancer; conditions: patients treated with gemcitabine; cited from earlier work
[2] = test system: lymphoblastoid cell lines; assay: Preliminary gemcitabine cytotoxicity, MTS assay, initial 71 cell lines; assay type: cell-based; conditions: Homo sapiens, read-out: IC50 values (the drug concentration that inhibited cell growth 50%), variation across initial 71 lymphoblastoid cell lines, 48 hours
Method: Gemcitabine cytotoxicity: Gemcitabine cytotoxicity after drug exposure is a major phenotype that is determined in the course of phenotype-genotype association studies for the lymphoblastoid cell lines. Increasing concentrations of gemcitabine are used to perform the cytotoxicity studies in a 96-well plate format. Approximately 5×10^5 lymphoblastoid cells are incubated overnight in each well before addition of the drug. The cells are then incubated for 48 hours with gemcitabine at 8 different concentrations, ranging from 10^−4 μM to 100 μM. Cytotoxicity is determined using the MTS assay. All studies are performed in triplicate, and both IC50 and LC50 values are calculated. To avoid confounding factors, cytotoxicity studies are performed with equal numbers of cell lines from each ethnic group in every experiment.
IC50 data have been obtained for 71 of 203 cell lines (the 71 cell lines for which Perlegen genome-wide SNP data is available). Significant variation in IC50 values was observed just for the initial 71 cell lines studied (FIG. 14). Each square in FIG. 14 represents an individual sample, and the colors represent different ethnic groups.

thymidine kinase 2 (TK2) = target: T1, thymidine kinase 2 (TK2) (Homo sapiens, UniProt O00142); conditions: as well as deoxycytidine; cited from earlier work
T1 sequence (O00142 34-265): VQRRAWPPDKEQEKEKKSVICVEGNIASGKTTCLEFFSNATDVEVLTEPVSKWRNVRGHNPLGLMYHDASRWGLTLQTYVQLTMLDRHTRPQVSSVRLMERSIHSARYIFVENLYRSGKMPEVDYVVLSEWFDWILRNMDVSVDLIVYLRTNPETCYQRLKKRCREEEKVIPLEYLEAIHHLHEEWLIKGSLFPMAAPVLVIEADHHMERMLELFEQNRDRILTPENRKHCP

SU86 cells = assay: Caspase-3/7 activity assay in siRNA-transfected cells; assay type: cell-based, human; conditions: increasing drug concentrations, 72 hours, compared with negative siRNA
Method: (§2) Error bars represent SEM values for 3 independent experiments.
(§3) Caspase-3/7 activity assay: The caspase-3 activity of siRNA-transfected cells was detected according to the manufacture's protocol using CASPASE-GLO® 3/7 Assay kit (Promega BioSciences, San Luis Obispo, Calif.). Once a proluminescent caspase-3/7 substrate containing the tetrapeptide sequence DEVD is cleaved by caspase-3/7, it will release a substrate for luciferase (amino-luciferin). […] CASPASE-GLO® 3/7 Reagent (100 μl; an equal volume to the cell suspension) was added and incubated for 1 hour at room temperature, followed by detection of luminescence with a luminometer. Wells containing culture medium alone were used as controls.
(§4) One possibility would involve the blockade of apoptosis signaling pathways as a result of FKBP5 knock-down. FKBP5 has been reported to be involved in apoptosis through a calcineurin-dependent pathway (Giraudier et al. Blood (2002) 100:2932-2940). To test that hypothesis, caspase-3/7 activity assays were performed to determine whether alterations in FKBP5 expression might influence apoptotic signaling. […] Specific mechanisms by which FKBP5 might influence apoptosis will require future clarification.

MDA-MB-231 cells = assay: as above; assay type: cell-based, human; conditions: increasing drug concentrations, 72 hours, compared with negative siRNA
Method: as §2, §3, §4

[3] = test system: SU86 pancreatic cancer cells; assay: Cytotoxicity (MTS) after siRNA knockdown of NT5C3 or FKBP5; assay type: cell-based, human; conditions: for Change of drug sensitivity after FKBP5 siRNA: FKBP5 specific siRNA vs negative siRNA
Method: (§5) Specifically, once cells grew at an exponential phase, 90 μl of cell suspension were placed into a 96 well flat plate (Corning, Corning, N.Y.) at a density of 5×10^4 cells/well. […] Experiments were performed in triplicate for each concentration. Medium alone was used as a blank, and cells treated with DMSO were used as controls for every plate. At end of the incubation, 20 μl combined MTS/PMS solution were added into each well and incubated at 37° C. for an additional 1-2 hours. The amount of soluble formazan was measured with a SAFIRE™ microplate reader (Tecan A G, Switzerland). An absorbance for the control cells ranging from 0.8 to 1.3 was considered to meet the standard of cytotoxicity assays for the analysis. The final cell viability for each well was calculated using the following formula: relative survival cell number=absorbance (drug-treated cells−blank)/absorbance (control cells−[…]). During the entire process from cell culture to cytotoxicity analysis, all cell lines were grown exponentially without antibiotics and were handled by one person under the same condition to minimize the variation introduced by handling. The final dose-response curve for each cell line was plotted based on either 4 parameter logistic with top=100%, or 4 parameter logistic with bottom=0% using an R package. GI50 values at each concentration for each cell lines were then calculated based on the dose response curve. Twelve randomly selected lymphoblastoid cell lines were used to repeat the cytotoxicity studies three months later. In addition, to functionally characterize the effect of the candidate genes on the sensitivity to both drugs, drug cytotoxicity with human tumor cell lines also was analyzed using an MTS assay. The experimental procedures were similar to those for the lymphoblastoid cell lines, except that the cells were incubated overnight in 96 well plates before addition of the two drugs.
(§6) Transient transfection and RNA interference: The human breast cancer cell line, MDA-MB-231, and the human pancreatic cancer cell line, SU86, were used for siRNA studies. The LIPOFECTAMINE™ RNAiMAX reagent (Invitrogen, Carlsbad, Calif.) was used for transient transfection of siRNA according to the manufacturer's instructions. Briefly, cells were growing adhesively until they reached 30-50% confluence in a 6-well plate, and then transfected. siRNAs including NT5C3-siRNA, FKBP5-siRNA and Allstars negative control siRNA (Qiagen) at a final concentration of 50 nM, as well as 5 μL, of LIPOFECTAMINE™ RNAiMAX reagent, were preincubated with 250 μL, reduced serum medium (Invitrogen) for 5 minutes at room temperature before being mixed together. After incubation of the siRNA and LIPOFECTAMINE™ reagent mixtures for 20 minutes at room temperature, this mixture was added to cells in 2 ml culture medium supplied with 10% FBS. Cells were harvested for further assays 48 hours post-transfection.
(§7) Transient transfections were first performed with NT5C3 and FKBP5 specific siRNAs. Western blots verified that both genes were knocked down in both tumor cell lines (FIG. 21A and FIG. 22A). […] That relationship also was confirmed by knockdown experiments performed with FKBP5 specific siRNA.

[4] = test system: MDA-MB-231 breast cancer cells; assay: as above; assay type: cell-based, human; conditions: for Change of drug sensitivity after FKBP5 siRNA: FKBP5 specific siRNA vs negative siRNA
Method: as §5, §6, §7

[5] = test system: human lymphoblastoid cell lines; assay: Gemcitabine and AraC cytotoxicity assay (MTS/PMS), Human Variation Panel; assay type: cell-based; conditions: 197 cell lines; mean±SD; 72 hours; read-out: Average unadjusted LC50
Method: as §1

[6] = test system: lymphoblastoid cell lines; assay: Intracellular active metabolites by HPLC after drug treatment; conditions: after AraC treatment
Method: To measure the intracellular metabolite levels in drug-treated lymphoblastoid cell lines, an HPLC assay was developed to measure AraCDP, AraCTP as well as dFdCDP and dFdCTP. […] Five×10^6 cells were centrifuged and washed with ice-cold phosphate buffered saline (PBS), followed by resuspension in 135 μL, of ice-cold PBS with 15 μL, of 100 μM AraCTP or dFdCTP as internal standards. Subsequently 50 μL, of 40% ice cold TCA was added, and the mixture was vortexed for 1 minute and chilled on ice for 20 minutes, followed by centrifugation. The supernatant was neutralized by adding 400 μL, of freshly prepared trioctylamine:trichlorotrifluoroethane (1:4). After centrifugation at 4° C. for 1 minute, the aqueous phase (nucleotide extract) was removed and stored at −20° C. for HPLC analysis.
Nucleotide analogue metabolites were separated from native nucleotides on a ZirChrom SAX HPLC column in HPLC assay. […] Mobile phase A was 10 mM K2HPO4 and 40 mM NaCl, pH 6.8. Mobile phase B was 100 mM K2HPO4 and 400 mM K2HPO4, pH 6.8. Detection was performed by monitoring the absorbance with a photo-diode array between 240-290 nm to obtain a typical chromatogram. The amount of intracellular metabolites in 5×10^6 cells was quantified with a standard curve prepared by spiking the 5×10^6 untreated control cells with pure compound, immediately followed by nucleotide extraction.

[7] = NT5C3 specific siRNA vs negative siRNA
[8] = average of 7 resistant cell samples
[9] = average of 7 sensitive cell samples

SMILES	CC50 at 72 h (in vitro) [nM]	patients with life expectancies of over one year [1]	IC50 [2] [nM]	phosphorylation by TK2 relative to deoxycytidine (thymidine kinase 2 (TK2))	caspase-3/7 activity in FKBP5 siRNA-treated cells (SU86 cells)	caspase-3/7 activity in FKBP5 siRNA-treated cells (MDA-MB-231 cells)	Change of drug sensitivity after FKBP5 siRNA [3]	Change of drug sensitivity (dose response curve) after NT5C3 siRNA [3, 7]	Change of drug sensitivity after FKBP5 siRNA [4]	Change of drug sensitivity (dose response curve) after NT5C3 siRNA [4, 7]	CC50 [5] [nM]	AraCDP, Resistant, Average ± SEM [6, 8]	AraCTP, Resistant, Average ± SEM [6, 8]	AraCDP, Sensitive, Average ± SEM [6, 9]	AraCTP, Sensitive, Average ± SEM [6, 9]
Nc1ccn([C@@H]2O[C@H](CO)[C@@H](O)C2(F)F)c(=O)n1 [gemcitabine, 2′,2′-difluorodeoxycytidine]	25.3 ± 30.7	approximately 20%	4 to 80	5-10%	significantly decreased	significantly decreased	desensitized	increased sensitivity	desensitized	increased sensitivity	–	–	–	–	–
Nc1ccn([C@@H]2O[C@H](CO)[C@@H](O)[C@@H]2O)c(=O)n1 [AraC, cytosine arabinoside]	–	–	–	–	significantly decreased	significantly decreased	desensitized	–	desensitized	–	8400 ± 14300	0.65 ± 0.13	2.62 ± 0.40	1.02 ± 0.18	4.43 ± 0.56
